According to US20240041838A1, “METHODS AND COMPOSITIONS FOR INHIBITION OF NEUTROPHIL RECRUITMENT IN MYCOCARDIAL ISCHEMIA-REPERFUSION INJURY” (University of Connecticut, priority 2022, published 2024):

Tests used:
[1] = system: mouse myocardial I/R injury; test: neutrophil recruitment in mouse myocardial I/R injury (multi-photon microscopy, flow cytometry); type: in vivo; conditions: I/R 35/60 minutes
Source text: C57BL/6J wild-type mice (000664; JAX) were originally obtained from the Jackson Laboratory. LysM-EGFP or Lyz2-EGFP mice were originally obtained from Albert Einstein College of Medicine through a material transfer agreement. Mice were fed a standard rodent chow diet and were housed in microisolator cages in a pathogen-free facility in the Center for Comparative Medicine at UConn Health. All experiments followed the UConn Health Institutional Animal Care and Use Committee (IACUC) guidelines, and approval for the use of rodents was obtained from the UConn Health IACUC according to criteria outlined in the Guide for the Care and Use of Laboratory Animals from the National Institutes of Health. Both male and female mice aged from 12 to 16 weeks were used in the experiments.
Mice were subjected to 35 minutes of myocardial ischemia and 1 (for multi-photon microscopy and flow cytometry) or 22-26 (for TTC-phthalo-blue staining) hours of reperfusion. […] Briefly, anesthesia was induced with an intraperitoneal injection of ketamine hydrochloride (125 mg·kg^−1) and xylazine (12.5 mg·kg^−1). Mice were intubated with 24G×3/4″ Surflo i.v. catheter and ventilated using MiniVent 845 (Harvard Apparatus).
Surgeries were performed under an SMZ168 Stereo Zoom microscope (Motic). Ischemia was achieved by ligating the left anterior descending coronary artery (LAD) using a 6-0 silk suture with a section of PE-10 tubing placed over the LAD, 1 mm from the tip of the normally positioned left atrium. One important problem in drug administration is water solubility, which greatly affects drug absorption and bioavailability. […] In clinics, the primary percutaneous coronary intervention aims to be performed less than 90 min (within 60 min is preferable) after the patient arrives. […] After occlusion for 35 minutes, reperfusion was initiated by releasing the ligature and removing the PE-10 tubing. The chest wall was closed, the animal extubated, and body temperature was maintained by use of a 37° C. warm pad. Hearts were harvested 1 or 22-26 hours later. The loosened suture was left in place and then retied for the purpose of evaluating the ischemic area. Sham control and no drug administered control were performed as well.
To assess the neutrophil recruitment in myocardial I/R injury, LysM-EGFP mice underwent 35 minutes of ischemia and 1 hour of reperfusion. […] After being fixed with 1% PFA and washes with ice-cold PBS, cell fluorescence was assessed with an LSRII (BD Biosciences, San Jose, CA) and analyzed with FlowJo software (version 10.6). […]

[2] = system: IL-8-induced Ca^2+ signal in neutrophils; test: intracellular Ca2+ flux by Fluo-4 time-resolved flow cytometry; type: cell-based, human; conditions: 10 μM, RT 1 hour; 1 μg·mL^−1 IL-8
Method: To monitor the dynamics of intracellular calcium (Ca^2+) flux, neutrophils (2×10^6 cells·mL^−1 in RPMI-1640 without phenol red plus 2% HSA) were incubated with Fluo-4 (4 μg·mL^−1) for one hour at RT. After washes, neutrophils were resuspended in RPMI-1640 without phenol red plus 2% HSA and assessed by an LSRII analyzer (BD Biosciences, San Jose, CA). One minute after analyzing, 1 μg·mL^−1 IL-8 was added to the cells. Cells were put back into the analyzer for another 9 minutes. The curves showing the dynamics of intracellular Ca^2+ flux (FIG. 2H) were generated by FlowJo software (version 10.6). The quantification of Fluo-4 MFI (FIG. 2I) was analyzed by FlowJo software (version 10.6) and obtained from three individual experiments.

CC(C)(C)C(=O)/C(=C\c1cccc([N+](=O)[O-])c1)n1cncn1 [Nexinhib20, 4,4-dimethyl-1-(3-nitrophenyl)-2-(1H-1,2,4-triazol-1-yl)-1-penten-3-one]
neutrophils retained in the blood circulation compared to vehicle controls ([1]; 1 μmol per mouse i.p.): doubled | percentage of neutrophils in heart leukocytes ([1]; 1 μmol per mouse i.p., vehicle about 50%): about 30% | heart neutrophil counts (CD45^+Ly6G^+) ([1]; 1 μmol per mouse i.p., vehicle about 6000): about 2000 | LysM-GFP^+ leukocyte recruitment to the coronary artery (EGFP fluorescence) ([1]; LysM-EGFP mice, 1 μmol per mouse i.p. 30 minutes before reperfusion): significantly limited | IL-8-induced Ca^2+ signal (Fluo-4) [2]: potently blocked
